Literature values in patent US20190008973A1, “INTRALIPID-IODINE FOR IMAGING” (priority 2017, published 2019).
Entries after “also recorded” stand apart in the source; their conditions may differ. Read-outs that look alike come from different tables or passages of the source.

Key:
hippocampus = settings: cited from earlier work
spinal anaesthesia = settings: spinal with 40 mg CP 1%; outpatient knee arthroscopy; versus general anaesthesia 142 min, P=0.0047; cited from earlier work
[1] = system: ischemia/reperfusion injury; settings: cited from earlier work
[2] = system: ischemia-reperfusion (IR) injury; settings: sham-operated hearts; cited from earlier work
oxygen desaturation = settings: in vivo; cited from earlier work
[3] = system: cardiac and regional blood flow; settings: propofol 4 mg/kg then 0.6 mg/kg/min; Intralipid 0.25 ml/kg then 0.06 ml/kg/min; cited from earlier work
[4] = system: propofol-mediated hypotension; settings: cited from earlier work
[5] = system: I/R injury in late pregnancy; settings: rat, in vivo; cited from earlier work
clomipramine toxicity = settings: 8 mL/kg 20% Intralipid or 2 mL/kg 8.4% sodium bicarbonate, n=4; cited from earlier work
drug overdose = settings: after lipid emulsion; cited from earlier work
brachial plexus [6] = settings: 150 μg clonidine or 200 μg epinephrine with 0.25% bupivacaine; cited from earlier work
[7] = system: hemodynamic compromise owing to bupivacaine intoxication; settings: epinephrine 3 μg/kg or Intralipid 20% 2 ml/kg; cited from earlier work
[8] = system: cardiac arrest caused by bupivacaine intoxication; settings: epinephrine 10 μg/kg, Intralipid 20% 4 ml/kg, vasopressin 2 IU; cited from earlier work
[9] = system: levobupivacaine myocardial toxicity; settings: pig, in vivo; cited from earlier work
brachial plexus [10] = settings: in vivo; cited from earlier work
[11] = system: N43 hypothalamic neuronal cells; settings: cited from earlier work
postoperative delirium = settings: postoperative analgesia; cited from earlier work
brachial plexus [12] = settings: in vivo; cited from earlier work; remark: listed apart in the source
axillary plexus = settings: in vivo; cited from earlier work
brachial plexus [13] = settings: in vivo; cited from earlier work; remark: listed apart in the source
brachial plexus [14] = settings: in vivo; cited from earlier work; remark: listed apart in the source
brachial plexus [15] = settings: 30 ml, cited from earlier work
mitochondrial ATPase = biological target: T1, mitochondrial ATPase (Homo sapiens, UniProt P06576+P25705); settings: reciprocal plots; cited from earlier work
T1 construct: mitochondrial ATPase prepared by the chloroform extraction method; from tissue; host or cells: mitochondria

[16] = system: spinal cord ischemia and reperfusion; settings: intrathecal, cited from earlier work
[17] = biological target: T2, ATPase of F1 particles from bovine heart mitochondria (Bos taurus, UniProt P00829+P19483); settings: read-out: concentration required for 50% inhibition of ATPase activity; cited from earlier work
T2 construct: F1 particles isolated from bovine heart mitochondria; from tissue; host or cells: bovine heart mitochondria

[18] = system: cocaine- and cocaethylene-induced cardiac depression; settings: 0.25% lipid emulsion or SBE-β-CD; cited from earlier work

CCCCCC(O)C=CC=CCCCCCCCC(=O)O (stereo not shown) [13-hydroxyoctadecadienoic acid]
increase of somatic paired-pulse facilitation (hippocampus): 80%

CCN(CC)CCOC(=O)c1ccc(N)cc1Cl [CP 1%, Chloroprocaine]
Time to reaching discharge criteria (spinal anaesthesia): 117 min

COc1cccc(-c2cc(=O)c3ccccc3o2)c1N [PD98059]
effect of inhibitor on Intralipid-induced cardioprotection [1]: only partially
effect of inhibitor on infarct-sparing effect of ILP [2]: only partially

CC(C)c1cccc(C(C)C)c1O [Propofol, propofol]
odds ratio for oxygen desaturation (oxygen desaturation): 5.22 (95% CI 1.78-15.35)
cardiac and regional hemodynamic changes [3]: increases in heart rate, coronary and carotid blood flows, and decreases in systemic vascular resistance and dP/dt
drop in MAP ([4]; 10 mg/kg IV): 55+/−2%
lowering of MAP ([4]; under chlorisondamine and phenylephrine): 12+/−4%

O=[N+]([O-])c1ccc2c(c1)S(=O)(=O)C=C2 [Stattic]
effect of inhibitor on ITLD-induced cardioprotection [5]: fully abolished

O=C([O-])O.[Na+] [bicarbonate, sodium bicarbonate]
circulation in second phase (severe toxicity) (clomipramine toxicity): developed pulseless electrical activity

Cn1c(=O)c2c(ncn2C)n(C)c1=O [caffeine]
plasma caffeine level (drug overdose): > 120 mg/L

CNC[C@H](O)c1ccc(O)c(O)c1 [epinephrine]
duration of block (brachial plexus [6]): 728.3 ± 35.8 min
survival [7]: 100%
survival [8]: 71%

CCCCN1CCCC[C@H]1C(=O)Nc1c(C)cccc1C [levobupivacaine]
haemodynamic effects of IV injection [9]: induced sinus bradycardia and reduced dMAP and LV dP/dtmax
need for rescue analgesics (brachial plexus [10]): 55%

CCCCC/C=C\C/C=C\CCCCCCCC(=O)O [linoleic acid]
palmitic acid-induced inflammation [11]: reduces palmitic acid-induced inflammation

CCOC(=O)C1(c2ccccc2)CCN(C)CC1 [meperidine]
delirium incidence (postoperative delirium): significantly higher

CCCN1CCCC[C@H]1C(=O)Nc1c(C)cccc1C [ropivacaine]
muscle relaxation judged as excellent (brachial plexus [12]): 35/49
mean time of block offset (axillary plexus): 13.5 h
duration of motor blocks (brachial plexus [13]): 12±5
duration of sensorial analgesia (brachial plexus [13]): 13.4±6
need for rescue analgesics (brachial plexus [10]): 65%
patients requiring supplementation (brachial plexus [14]): 8 of the 22
duration of motor block (brachial plexus [15]; listed as 0.5% ropivacaine): 8.29 h
duration of sensory block (brachial plexus [15]; listed as 0.5% ropivacaine): 9.02 h
onset of motor block (brachial plexus [15]; listed as 0.5% ropivacaine): 22.23 ± 4.05 min
onset of sensory block (brachial plexus [15]; listed as 0.5% ropivacaine): 17.79 ± 5.03 min
duration of motor block (brachial plexus [15]; listed as 0.75% ropivacaine): 7.89 h
duration of sensory block (brachial plexus [15]; listed as 0.75% ropivacaine): 8.87 h
onset of motor block (brachial plexus [15]; listed as 0.75% ropivacaine): 22.33 ± 5.17 min
onset of sensory block (brachial plexus [15]; listed as 0.75% ropivacaine): 18.48 ± 6.14 min

CCCCNc1ccc(C(=O)OCCN(C)C)cc1 [tetracaine]
kind of inhibition (mitochondrial ATPase): non-competitive
neurologically normal animals ([16]; aortic occlusion 25 minutes): 100%
neurologically normal animals ([16]; aortic occlusion 30 minutes): 86%
IC50 [17]: 1100 µM

sulfobutylether-β-cyclodextrin [SBE-β-CD]
cardiac depression in Langendorff hearts [18]: mild cardio depressant effect; also recorded: mild cardiodepressant effect
